row,SMILES,melting point
1,Cc1ccc(Cn2ccc(CN3CCC(c4ccccc4)(c4ccccc4)CC3)n2)cc1C,139 to 140 °C
2,Cc1cc(C2=CCCCC2)c(OP2OCC(C)(C)CO2)c(C(C)(C)C)c1,97 to 102 °C
3,CCC(CC)N1CCC(CNc2ccc(Cl)cc2C(=O)Nc2ccc(C)cn2)CC1,122 to 124 °C
4,CCOC(=O)c1ccc(/C=C(\C)c2ccc3c(c2)OCCCC3)cc1,71 to 72 °C
5,CC(C)=CCC/C(C)=C/COCC(=O)c1cc(C(C)(C)C)c(O)c(C(C)(C)C)c1,50 °C
6,CC(C)CP1C(O)C(O)P(CC(C)C)C(O)C1O (stereo unspecified),173 to 175 °C
7,CC(C)(C)OC(=O)N1CCN(c2cc(N)nc(N)n2)CC1,176 to 179 °C
8,CCCCCCCCCCNCC(O)CO (stereo unspecified),65 to 67 °C
9,CC1CCC(C(=O)N(C)C)=C2NC=CC(=O)N21 (stereo unspecified),78 °C
10,Cc1c(-n2cnc3c(-c4ccccc4)cc(F)cc32)nc2ccc(F)cc2c1C(=O)O,208 to 210 °C
11,C/C(=C\c1ccc(C(=O)OCc2ccc([N+](=O)[O-])cc2)cc1)c1ccc2c(c1)C(C)(C)CCC2(C)C,183 to 184 °C
12,O=[N+]([O-])c1ccc(Oc2ccc(C(c3ccc(Oc4ccc([N+](=O)[O-])c(O)c4)cc3)(C(F)(F)F)C(F)(F)F)cc2)cc1O,148 to 151 °C
13,CCOc1cc(C(CC#N)N2Cc3c(Cl)ccc(NC(=O)C4CC4)c3C2=O)ccc1OC (stereo unspecified),200 to 202 °C
14,CN(C(c1ccc(F)cc1)c1ccc(Cl)cc1Cl)n1cncn1 (stereo unspecified),118 to 119 °C
15,CCOC(=O)CNC(=O)CCCCCNC(=O)c1cccc(C(F)(F)F)c1,102 to 104 °C
16,N#Cc1cc(-c2ccoc2)c2ccc(COc3cc(F)cc(-c4ccc(F)cc4)c3)cc2n1,177 to 180 °C

row,SMILES,melting point
1,CCCOc1ccc(C(O)CN2CCOCC2)cc1-c1nc2c(CCC)nn(C)c2c(=O)[nH]1 (stereo unspecified),104 to 105 °C
2,COc1ccc(C=CC(=O)N[C@@H](Cc2ccccc2)C(=O)CSCc2ccsc2)c(OC)c1,142 to 143 °C
3,N#Cc1ccc(CC(=O)Nc2cccc(C(=O)NCCC(=O)OCc3ccccc3)c2)cc1,98 to 99 °C
4,CC(C)(C)C(=C=CCl)c1ccccc1-c1ccccc1,85 to 86 °C
5,O=C(NCc1ccccc1N1CCNCC1)c1cnc2c(-c3cccc(Cl)c3)cnn2c1,185 to 188 °C
6,COc1cc(OC)nc(Oc2ccccc2C(=O)OC(=O)c2ccccc2Oc2nc(OC)cc(OC)n2)n1,120 to 122 °C
7,O=C(Nc1nccs1)c1cn(CC2CCCCC2)c2cc(Cl)ccc12,181 to 183 °C
8,CS(=O)(=O)CS(C)(=O)=O,146 °C
9,CCCCOc1ccc(C(=O)Nc2ccc3cc(CN4CCCC4)cnc3c2C)cc1,161 °C
10,O=C(Nc1ccc(Cl)c(C(F)(F)F)c1)Oc1ccc2c(c1)CCCN2Cc1ccccc1,151 °C
11,CC(C)C[C@@H](C(=O)O)N(C)Cc1ccc(C(C)(C)C)cc1,110 to 112 °C
12,CCCc1c(O)c(F)cc(C(C)=O)c1O,129 to 130 °C
13,CCOC(=O)COn1c2c([nH]c(=O)c1=O)CCC1=C2C=C(n2ccc(CNC(=O)C(F)(F)F)c2)CC1,199 °C
14,COc1ccc(N2CCOCC2)c2sc(-c3nc(-c4ccc5c(c4)OCCO5)c[nH]3)nc12,235 to 237 °C
15,Clc1ccc2c(c1)c(-c1ccccc1)c1n2CCNC1,163 to 164 °C

# More lines, now with the values ahead:
row,melting point,SMILES
1,188 °C,CS(=O)(=O)Nc1ccc(-n2nc(C(F)(F)F)nc2-c2ccc(S(C)(=O)=O)cc2)cc1
2,155 to 156 °C,CCOC(=O)c1ccc2c(c1)CCCC2Cn1ccnc1S (stereo unspecified)
3,135 to 137 °C,COc1ccc(CN(OC)C(=O)C2=C(O)C(=O)N(C)C2)cc1
4,99 to 101 °C,CCOc1nn(-c2c(Cl)cc(C(F)(F)F)cc2Cl)c(N)c1C(=O)c1cc(C)ccc1C
5,113 to 114 °C,Cn1ncc(-c2ccccn2)c1S(N)(=O)=O
6,143 to 144 °C,N#CCC(c1ccccn1)c1cc(N)cc2c1OCC2 (stereo unspecified)
7,204 to 205 °C,CC(C)N(c1cccc2cc(C(N)=S)[nH]c12)S(=O)(=O)c1cccs1
8,123 to 126 °C,Cc1cccc(NC(=O)NC2N=C(C(C)C)c3ccccc3N(CC(=O)N3CC4CCC(CC4)C3)C2=O)c1 (stereo unspecified)
9,213 to 215 °C,CC(=O)c1ccc(S(=O)(=O)NCC(=O)O)cc1
10,130 to 132 °C,COc1ccc(C(C)=C2SCCCS2)cc1C(=O)O
11,79 to 84 °C,CC(C)c1cc(C(C)C)c(CC(=O)NS(=O)(=O)Oc2c(C(C)C)cc(C#N)cc2C(C)C)c(C(C)C)c1
12,144 to 145 °C,COc1ccc(CNS(=O)(=O)Cc2ccc3[nH]cc(CC#N)c3c2)cc1
13,167 to 169 °C,OCc1cc2cc(O)c(Cl)c(Cl)c2s1
14,204 to 205 °C,CC(=Cc1ccc(O)cc1)C(=O)O
15,281 to 282 °C,CC(=O)Nc1cnc(-c2ccccc2)[nH]c1=O
16,103 °C,CCOC(=O)C1=C(N2CCCC2)N=C(C)C(C(=O)OC)C1c1cccc([N+](=O)[O-])c1 (stereo unspecified)
17,264 to 266 °C,CC1(C)OC(=O)Nc2ccc(-c3ccc(C#N)s3)cc21
18,69 to 71 °C,CN1C(=O)[C@@H](CN2CCCCC2)C[C@H]1c1ccc(Br)s1
19,244 °C,CC(C)n1nc(-c2cnc(N)nc2-c2c(F)cccc2F)ccc1=O
20,225 °C,CCCCNc1c(C(=O)O)cnc2[nH]ncc12

row,melting point,SMILES
1,177 to 179 °C,Cc1nc(N2CCN(Cc3ccc(F)cc3)C2=O)sc1C(=O)NCc1cccnc1
2,143 to 145 °C,COC(=O)c1cc(-c2cccc(Cl)c2Cl)c(C(=O)OC)[nH]1
3,90 to 91 °C,C=CCN1C(=O)C2CCc3c(OC)c(OC)cc(C)c3C2C1=O (stereo unspecified)
4,172 to 173 °C,COc1ccn(-c2ccc(C3CCN(S(=O)(=O)C(C)(C)C(=O)NO)CC3)cc2C)n1
5,159 to 161 °C,CCN1C(=O)C(C)(C)C(=O)N(C)c2cc(CN(CCn3ccc4oc(C)cc4c3=O)Cc3cccnc3Cl)ccc21
6,151 to 154 °C,CCCN1CCCC2(Cc3ccccc3NC2=O)C1=O (stereo unspecified)
7,200 to 205 °C,FC(F)(F)c1cccc(-c2ccnc(S)n2)c1
8,42 to 45 °C,CCOC(=O)c1nc2cc(F)ccc2nc1CC
9,198 to 200 °C,CCOCCOc1ccccc1-c1cc(=O)c2cc(C(=O)O)ccc2o1
10,171 to 172 °C,COC(=O)c1cc(C(=O)OC)n(-c2ccc(N)cc2C(=O)c2ccccc2)n1
11,214 to 216 °C,Cc1ccc(Cl)c(NS(=O)(=O)c2nc(C)n(-c3ncccn3)n2)c1Cl
12,210 to 211 °C,Cc1c(Cc2cccnc2)ccc2ccc(C(=O)O)cc12
13,79 to 80 °C,Fc1ccc2scc(Br)c2c1
14,99 °C,Cc1ccc(S(=O)(=O)N2CCCC2c2ccc(C(F)(F)F)cc2)cc1 (racemic)
15,302 to 303 °C,Cc1cccc(C)c1-n1c(C)c(C#N)c(=O)[nH]c1=O
16,216 to 218 °C,Cn1cc(-c2cccc(N3Cc4cc(C(C)(C)C)ccc4C3=O)c2CO)cc(Nc2ccncn2)c1=O
17,173 to 176 °C,Cc1ccc2c(n1)C(=O)N(c1c(Cl)ccc(C)c1C#N)C2=O
18,135 to 140 °C,COC(=O)c1c(-c2ccco2)ccnc1C(=O)c1nc(OC)cc(OC)n1
19,175 to 177 °C,Cc1noc(NS(=O)(=O)c2nccs2)c1Br
20,123 to 125 °C,CS(=O)(=O)c1ccccc1-c1ccn[nH]c1=O
